Results as given in ChEMBL document CHEMBL2401728, “An unexpected Dimroth rearrangement leading to annelated thieno[3,2-d][1,2,3]triazolo[1,5-a]pyrimidines with potent antitumor activity” (Eur J Med Chem, 2013).

Columns and labels:
Format in all cases: functional
[1] = system: SK-MEL-5; experiment: Cytotoxicity against human SK-MEL-5 cells assessed as cellular growth at 0.01 uM after 48 hrs by SRB assay relative to control
[2] = system: DU-145; experiment: Cytotoxicity against human DU145 cells assessed as cellular growth at 0.1 uM after 48 hrs by SRB assay relative to control
[3] = system: CCRF-CEM; experiment: Cytotoxicity against human CCRF-CEM cells assessed as cellular growth at 0.1 uM after 48 hrs by SRB assay relative to control
[4] = system: NCI-H522; experiment: Cytotoxicity against human NCI-H522 cells assessed as cellular growth at 1 uM after 48 hrs by SRB assay relative to control
[5] = system: MCF7; experiment: Cytotoxicity against human MCF7 cells after 48 hrs by SRB assay; settings: MCF7, 48 h
[6] = system: Hs-578T; experiment: Cytotoxicity against human Hs578T cells assessed as cellular growth at 0.01 uM after 48 hrs by SRB assay relative to control
[7] = system: IGROV-1; experiment: Cytotoxicity against human IGROV1 cells assessed as cellular growth at 0.1 uM after 48 hrs by SRB assay relative to control
[8] = system: IGROV-1; experiment: Cytotoxicity against human IGROV1 cells assessed as cellular growth at 1 uM after 48 hrs by SRB assay relative to control
[9] = system: MDA-MB-435; experiment: Cytotoxicity against human MDA-MB-435 cells assessed as cellular growth at 100 uM after 48 hrs by SRB assay relative to control
[10] = system: K562; experiment: Cytotoxicity against human K562 cells assessed as cellular growth at 100 uM after 48 hrs by SRB assay relative to control
[11] = system: OVCAR-3; experiment: Cytotoxicity against human OVCAR3 cells after 48 hrs by SRB assay; settings: OVCAR-3, 48 h
[12] = system: SK-MEL-5; experiment: Cytotoxicity against human SK-MEL-5 cells assessed as cellular growth at 100 uM after 48 hrs by SRB assay relative to control
[13] = system: HCT-15; experiment: Cytotoxicity against human HCT15 cells assessed as cellular growth at 0.01 uM after 48 hrs by SRB assay relative to control
[14] = system: KM12; experiment: Cytotoxicity against human KM12 cells assessed as cellular growth at 1 uM after 48 hrs by SRB assay relative to control
[15] = system: IGROV-1; experiment: Cytotoxicity against human IGROV1 cells at 10 uM after 48 hrs by SRB assay
[16] = system: NCI-H522; experiment: Cytotoxicity against human NCI-H522 cells assessed as cellular growth at 100 uM after 48 hrs by SRB assay relative to control
[17] = system: SF-539; experiment: Cytotoxicity against human SF539 cells assessed as cellular growth at 100 uM after 48 hrs by SRB assay relative to control
[18] = system: Malme-3M; experiment: Cytotoxicity against human MALME-3M cells assessed as cellular growth at 1 uM after 48 hrs by SRB assay relative to control
[19] = system: SF-539; experiment: Cytotoxicity against human SF539 cells after 48 hrs by SRB assay; settings: SF-539, 48 h
[20] = system: SK-MEL-5; experiment: Cytotoxicity against human SK-MEL-5 cells assessed as cellular growth at 0.1 uM after 48 hrs by SRB assay relative to control
[21] = system: A549; experiment: Cytotoxicity against human A549 cells assessed as cellular growth at 0.1 uM after 48 hrs by SRB assay relative to control
[22] = system: U-251; experiment: Cytotoxicity against human U251 cells assessed as cellular growth at 0.1 uM after 48 hrs by SRB assay relative to control
[23] = system: NCI-H226; experiment: Cytotoxicity against human NCI-H226 cells assessed as cellular growth at 0.01 uM after 48 hrs by SRB assay relative to control
[24] = system: UACC-257; experiment: Cytotoxicity against human UACC257 cells assessed as cellular growth at 1 uM after 48 hrs by SRB assay relative to control
[25] = system: MDA-MB-468; experiment: Cytotoxicity against human MDA-MB-468 cells after 48 hrs by SRB assay; settings: MDA-MB-468, 48 h
[26] = system: HOP-92; experiment: Cytotoxicity against human HOP92 cells assessed as cellular growth at 0.1 uM after 48 hrs by SRB assay relative to control
[27] = system: ACHN; experiment: Cytotoxicity against human ACHN cells assessed as cellular growth at 0.01 uM after 48 hrs by SRB assay relative to control
[28] = system: Hs-578T; experiment: Cytotoxicity against human Hs578T cells after 48 hrs by SRB assay
[29] = system: A549; experiment: Cytotoxicity against human A549 cells assessed as cellular growth at 1 uM after 48 hrs by SRB assay relative to control
[30] = system: DU-145; experiment: Cytotoxicity against human DU145 cells assessed as cellular growth at 1 uM after 48 hrs by SRB assay relative to control
[31] = system: HOP-92; experiment: Cytotoxicity against human HOP92 cells after 48 hrs by SRB assay; settings: HOP-92, 48 h
[32] = system: A549; experiment: Cytotoxicity against human A549 cells assessed as cellular growth at 0.01 uM after 48 hrs by SRB assay relative to control
[33] = system: SNB-19; experiment: Cytotoxicity against human SNB19 cells assessed as cellular growth at 1 uM after 48 hrs by SRB assay relative to control
[34] = system: SF-268; experiment: Cytotoxicity against human SF268 cells assessed as cellular growth at 0.01 uM after 48 hrs by SRB assay relative to control
[35] = system: U-251; experiment: Cytotoxicity against human U251 cells assessed as cellular growth at 1 uM after 48 hrs by SRB assay relative to control
[36] = system: MDA-MB-435; experiment: Cytotoxicity against human MDA-MB-435 cells after 48 hrs by SRB assay; settings: MDA-MB-435, 48 h
[37] = read-out: LC50 (the source's name)
[38] = read-out: pLC50 (the source's name) (converted)

O=C(CCCn1c2c(sc3ccccc32)c(=O)n2nnc(-c3ccccc3)c12)NCCc1c[nH]cn1
Activity [1]: 101% | Activity [2]: 87% | Activity [3]: 24% | Activity [4]: 42% | GI50 ([5]; read-out: GI50): 1150 nM | LC50 ([5]; read-out: LC50): 6110 nM | TGI ([5]; read-out: TGI): 2650 nM | GI50 ([5]; read-out: pGI50 (converted)): 1150 nM | LC50 ([5]; read-out: pLC50 (converted)): 6170 nM | TGI ([5]; read-out: pTGI (converted)): 2630 nM | Activity [6]: 109% | Activity [7]: 50% | Activity [8]: 41% | Activity [9]: -76% | Activity [10]: -100% | GI50 ([11]; read-out: GI50): 1660 nM | CC50 [11, 37]: 5660 nM | TGI ([11]; read-out: TGI): 3070 nM | GI50 ([11]; read-out: pGI50 (converted)): 1660 nM | CC50 [11, 38]: 5620 nM | TGI ([11]; read-out: pTGI (converted)): 3090 nM | Activity [12]: -100% | Activity [13]: 96% | Activity [14]: 39% | Activity [15]: -89% | Activity [16]: -25% | Activity [17]: -99% | Activity [18]: 81% | GI50 ([19]; read-out: GI50): 20.6 nM | CC50 [19, 37]: 3140 nM | TGI ([19]; read-out: TGI): 122 nM | GI50 ([19]; read-out: pGI50 (converted)): 20.4 nM | CC50 [19, 38]: 3160 nM | TGI ([19]; read-out: pTGI (converted)): 123 nM | Activity [20]: 90% | Activity [21]: 99% | Activity [22]: 54% | Activity [23]: 97% | Activity [24]: 109% | GI50 ([25]; read-out: GI50): 339 nM | CC50 [25, 37]: 3770 nM | TGI ([25]; read-out: TGI): 1210 nM | GI50 ([25]; read-out: pGI50 (converted)): 339 nM | CC50 [25, 38]: 3800 nM | TGI ([25]; read-out: pTGI (converted)): 1200 nM | Activity [26]: 95% | Activity [27]: 104% | GI50 ([28]; read-out: GI50): 1470 nM | TGI ([28]; read-out: TGI): 3820 nM | GI50 ([28]; read-out: pGI50 (converted)): 1480 nM | TGI ([28]; read-out: pTGI (converted)): 3800 nM | Activity [29]: 64% | Activity [30]: 55% | GI50 ([31]; read-out: GI50): 4060 nM | CC50 [31, 37]: > 100000 nM | TGI ([31]; read-out: TGI): 20500 nM | GI50 ([31]; read-out: pGI50 (converted)): 4070 nM | CC50 [31, 38]: > 100000 nM | TGI ([31]; read-out: pTGI (converted)): 20400 nM | Activity [32]: 103% | Activity [33]: 65% | Activity [34]: 105% | Activity [35]: 36% | GI50 ([36]; read-out: GI50): 345 nM | CC50 [36, 37]: 4700 nM | TGI ([36]; read-out: TGI): 1870 nM | GI50 ([36]; read-out: pGI50 (converted)): 347 nM | CC50 [36, 38]: 4680 nM | TGI ([36]; read-out: pTGI (converted)): 1860 nM
